Assay results: the NIST ThermoML archive (doi:10.1021/je049609w)

Tests used:
[1] = refractive index (Na D-line) (dimensionless); xn = mol fraction of the nth substance listed; details: 101 kPa, Liquid
[2] = xn = mol fraction of the nth substance listed; details: 101 kPa, Liquid

OCCCl [1-chloro-2-hydroxyethane] + C1COCCO1
Details | mass density, 298.15 K [kg/m3] | mass density, 303.15 K [kg/m3] | mass density, 308.15 K [kg/m3] | refractive index, 298.15 K | refractive index, 303.15 K | refractive index, 308.15 K | speed of sound, 298.15 K [m/s] | viscosity, 298.15 K [mPa·s] | viscosity, 303.15 K [mPa·s] | viscosity, 308.15 K [mPa·s]
[1], x2 = 0 | – | – | – | 1.4411 | 1.438 | 1.4326 | – | – | – | –
[1], x2 = 0.1024 | – | – | – | 1.4389 | 1.4356 | 1.4324 | – | – | – | –
[1], x2 = 0.2001 | – | – | – | 1.4363 | 1.4337 | 1.431 | – | – | – | –
[1], x2 = 0.3035 | – | – | – | 1.4337 | 1.4314 | 1.4292 | – | – | – | –
[1], x2 = 0.4041 | – | – | – | 1.4314 | 1.4291 | 1.4268 | – | – | – | –
[1], x2 = 0.5047 | – | – | – | 1.429 | 1.4269 | 1.4247 | – | – | – | –
[1], x2 = 0.6031 | – | – | – | 1.4273 | 1.4249 | 1.4225 | – | – | – | –
[1], x2 = 0.7015 | – | – | – | 1.4256 | 1.4231 | 1.4205 | – | – | – | –
[1], x2 = 0.8009 | – | – | – | 1.4235 | 1.4211 | 1.4187 | – | – | – | –
[1], x2 = 0.9003 | – | – | – | 1.4214 | 1.4191 | 1.4168 | – | – | – | –
[2], x2 = 0 | 1200.9 | 1192.5 | 1187.1 | – | – | – | 1358 | 3.104 | 2.669 | 2.347
[2], x2 = 0.1024 | 1177.7 | 1171.1 | 1165.1 | – | – | – | 1357 | 2.755 | 2.457 | 2.16
[2], x2 = 0.2001 | 1157 | 1151.1 | 1145.2 | – | – | – | 1356 | 2.431 | 2.17 | 1.909
[2], x2 = 0.3035 | 1136.7 | 1131.1 | 1125.5 | – | – | – | 1354 | 2.088 | 1.877 | 1.666
[2], x2 = 0.4041 | 1118.2 | 1112.7 | 1107.2 | – | – | – | 1353 | 1.858 | 1.682 | 1.505
[2], x2 = 0.5047 | 1100.8 | 1095.4 | 1090 | – | – | – | 1352 | 1.649 | 1.496 | 1.344
[2], x2 = 0.6031 | 1084.8 | 1079.4 | 1073.9 | – | – | – | 1350 | 1.505 | 1.376 | 1.248
[2], x2 = 0.7015 | 1069.5 | 1064.1 | 1058.7 | – | – | – | 1349 | 1.377 | 1.265 | 1.152
[2], x2 = 0.8009 | 1054.9 | 1049.5 | 1044.1 | – | – | – | 1347 | 1.304 | 1.199 | 1.095
[2], x2 = 0.9003 | 1041.6 | 1030.9 | 1030.2 | – | – | – | 1346 | 1.233 | 1.136 | 1.038

CC(=O)N(C)C [N,N-dimethylethanamide] + C1COCCO1
Details | mass density, 298.15 K [kg/m3] | mass density, 303.15 K [kg/m3] | mass density, 308.15 K [kg/m3] | refractive index, 298.15 K | refractive index, 303.15 K | refractive index, 308.15 K | speed of sound, 298.15 K [m/s] | viscosity, 298.15 K [mPa·s] | viscosity, 303.15 K [mPa·s] | viscosity, 308.15 K [mPa·s]
[1], x2 = 0 | – | – | – | 1.4363 | 1.4342 | 1.432 | – | – | – | –
[1], x2 = 0.1121 | – | – | – | 1.4346 | 1.4324 | 1.4302 | – | – | – | –
[1], x2 = 0.2162 | – | – | – | 1.4328 | 1.4306 | 1.4284 | – | – | – | –
[1], x2 = 0.3203 | – | – | – | 1.431 | 1.4287 | 1.4264 | – | – | – | –
[1], x2 = 0.4222 | – | – | – | 1.4293 | 1.4269 | 1.4246 | – | – | – | –
[1], x2 = 0.5242 | – | – | – | 1.4275 | 1.4252 | 1.4228 | – | – | – | –
[1], x2 = 0.6219 | – | – | – | 1.4259 | 1.4234 | 1.421 | – | – | – | –
[1], x2 = 0.7198 | – | – | – | 1.4242 | 1.4226 | 1.4191 | – | – | – | –
[1], x2 = 0.8157 | – | – | – | 1.4226 | 1.421 | 1.4174 | – | – | – | –
[1], x2 = 0.9116 | – | – | – | 1.421 | 1.4195 | 1.4157 | – | – | – | –
[2], x2 = 0 | 946.8 | 942.1 | 937.5 | – | – | – | 1458 | 1.261 | 1.154 | 1.047
[2], x2 = 0.1121 | 954.8 | 950.1 | 945.4 | – | – | – | 1447 | 1.255 | 1.149 | 1.043
[2], x2 = 0.2162 | 962.4 | 957.6 | 952.9 | – | – | – | 1436 | 1.248 | 1.144 | 1.039
[2], x2 = 0.3203 | 970 | 965.2 | 960.3 | – | – | – | 1424 | 1.242 | 1.138 | 1.035
[2], x2 = 0.4222 | 977.9 | 972.9 | 968 | – | – | – | 1413 | 1.235 | 1.133 | 1.031
[2], x2 = 0.5242 | 985.9 | 980.9 | 975.9 | – | – | – | 1401 | 1.228 | 1.128 | 1.027
[2], x2 = 0.6219 | 993.9 | 988.8 | 983.6 | – | – | – | 1390 | 1.222 | 1.123 | 1.023
[2], x2 = 0.7198 | 1002.1 | 996.8 | 991.6 | – | – | – | 1379 | 1.215 | 1.117 | 1.019
[2], x2 = 0.8157 | 1010.5 | 1005.3 | 999.8 | – | – | – | 1367 | 1.209 | 1.105 | 1.016
[2], x2 = 0.9116 | 1019.2 | 1013.7 | 1008.2 | – | – | – | 1356 | 1.202 | 1.099 | 1.012

CCCCO [butan-1-ol] + C1COCCO1
x2 = 0
Details | mass density, 298.15 K [kg/m3] | mass density, 303.15 K [kg/m3] | mass density, 308.15 K [kg/m3] | refractive index, 298.15 K | refractive index, 303.15 K | refractive index, 308.15 K | speed of sound, 298.15 K [m/s] | viscosity, 298.15 K [mPa·s] | viscosity, 303.15 K [mPa·s] | viscosity, 308.15 K [mPa·s]
[1] | – | – | – | 1.3983 | 1.3955 | 1.3937 | – | – | – | –
[2] | 805.8 | 802 | 798 | – | – | – | 1237 | 2.564 | 2.245 | 1.981
